Results reported in ChEMBL document CHEMBL1149987, “Synthesis and biological evaluation of new arachidonic acid analogs” (Bioorg Med Chem Lett, 1994).

Key:
[1] = target: T1, Polyunsaturated fatty acid 5-lipoxygenase (Homo sapiens, UniProt P09917); assay: Compound was tested for the inhibition of 5-lipoxygenase of human PMN stimulated by calcium ionophore A-23187 for the formation of leukotriene B4 (LTB4)
T1 sequence (P09917 whole entry): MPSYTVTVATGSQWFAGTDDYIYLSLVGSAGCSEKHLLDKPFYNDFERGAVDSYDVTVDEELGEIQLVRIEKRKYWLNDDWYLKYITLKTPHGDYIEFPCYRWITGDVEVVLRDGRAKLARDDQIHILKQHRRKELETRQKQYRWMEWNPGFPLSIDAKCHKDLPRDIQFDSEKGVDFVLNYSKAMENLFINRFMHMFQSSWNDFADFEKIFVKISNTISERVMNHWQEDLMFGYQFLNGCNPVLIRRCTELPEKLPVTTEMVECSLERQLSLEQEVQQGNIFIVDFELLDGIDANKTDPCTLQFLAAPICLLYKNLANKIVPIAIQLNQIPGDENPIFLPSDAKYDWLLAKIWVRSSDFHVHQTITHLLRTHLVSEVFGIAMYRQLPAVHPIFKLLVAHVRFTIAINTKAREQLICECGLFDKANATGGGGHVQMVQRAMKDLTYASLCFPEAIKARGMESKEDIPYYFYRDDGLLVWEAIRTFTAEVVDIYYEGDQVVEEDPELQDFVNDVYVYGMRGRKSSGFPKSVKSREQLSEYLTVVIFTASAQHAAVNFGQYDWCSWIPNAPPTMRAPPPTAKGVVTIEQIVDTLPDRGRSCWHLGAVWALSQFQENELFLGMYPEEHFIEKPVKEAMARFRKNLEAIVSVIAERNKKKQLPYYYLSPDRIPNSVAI

[2] = target: T1, Polyunsaturated fatty acid 5-lipoxygenase; assay: Compound was tested for the inhibition of 5-lipoxygenase of human PMN stimulated by calcium ionophore A-23187 for the formation of 5-HETE

SMILES	IC50 [1] [nM]	IC50 [2] [nM]
CCCCC/C=C\C/C=C\[C@@H]1CC(C)=C(C)C[C@H]1/C=C\C/C=C\CCCC(=O)O	1600	1000
CCCCC/C=C\C/C=C\[C@H]1CC(C)=C(C)C[C@H]1/C=C\C/C=C\CCCC(=O)O	1900	1100
CCCCC/C=C\C/C=C\[C@@H]1C[C@H]1/C=C\C/C=C\CCCC(=O)O (stereo in doubt; (+)-7a)	2800	2900
CCCCC/C=C\C/C=C\[C@@H]1C[C@H]1/C=C\C/C=C\CCCC(=O)O (stereo in doubt; (-)-7a)	2400	1700
